Results published in patent publication US5233062A, “Antibiotic eicosenoic acids” (Merck & Co., Inc., priority 1992, dated 1993).

Columns and labels:
Assay in all cases: antifungal disc diffusion assay
Assay type in all cases: cell-based
Candida neoformans = tested on: Candida neoformans
Experimental: (§1) The antifungal activity of the compounds may be detected in an antifungal assay employing disc diffusion methods against a panel of representative yeasts, filamentous fungi (molds) and bacteria.
(§2) For carrying out the assay, seeded assay plates are prepared in the following manner according to the type of assay strain.
(§3) Inocula for yeasts and Streptomyces strains are prepared from overnight broth cultures then diluted into potato dextrose […] to a final concentration of either 40 percent or 70 percent transmission at 660 nm.
(§4) The seeded agar media thus prepared are dispensed into Petri dishes for assays (11 milliliters per dish).
(§5) The samples to be tested for production of antifungal agent are applied to 6.2 mm. filter paper discs (25 microliter/disc) and air dried at 24° C. When the sample to be tested is crude broth, it may be centrifuged prior to application. The discs bearing the material to be tested are then applied employing sterile conditions to be seeded assay plates and the sample rewet with 25 percent sterile aqueous dimethysulfoxide (25 μl/disc). The assay plates are then incubated at either 28° C. or 37° C. for 24 hours.
(§6) Following incubation, the inhibition zones are measured and recorded. The measurements are made from the extreme edge where growth differs from the background zone. The zones are noted as to appearance as fuzzy edge and clear center, hazy throughout, slightly hazy, very hazy or ringed.

Candida pseudotropicalis = tested on: Candida pseudotropicalis
Experimental: as §1, §2, §3, §4, §5, §6

Candida parapsilosis = tested on: Candida parapsilosis
Experimental: as §1, §2, §3, §4, §5, §6

Candida albicans = tested on: Candida albicans
Experimental: as §1, §2, §3
(§7) For strains of Candida albicans and Saccharomyces cerevisiae, sterile saline is employed in place of potato dextrose broth. Assay plates are prepared by diluting the inoculum into appropriate molten agar medium, cooled to 45° C. to obtain a final concentration of 4 percent.
as §4, §5, §6

Ceratocystis ulmi = details: filamentous fungus Ceratocystis ulmi
Experimental: as §1, §2
(§8) Inocula for filamentous fungi are prepared by scraping the surface of stock plates maintained on potato dextrose agar with a moistened sterile dacron swab. The spores and mycelia are then suspended in 10 milliliters of sterile potato dextrose broth and adjusted to 70 percent transmission at 660 nm.
as §4, §5
(§9) Following incubation, the inhibition zones are measured and recorded. The measurements are made from the extreme edge where growth differs from the background zone. […]

Alternaria solani = details: filamentous fungus Alternaria solani
Experimental: as §1, §2, §8, §4, §5, §9

Cryptococous neoformans = tested on: Cryptococous neoformans
Experimental: as §1, §2, §3, §4, §5, §6

Saccharomyces cerevisiae = tested on: Saccharomyces cerevisiae
Experimental: as §1, §2, §3, §7, §4, §5, §6

Row | SMILES | antifungal activity (Candida neoformans) | antifungal activity (Candida pseudotropicalis) | antifungal activity (Candida parapsilosis) | antifungal activity (Candida albicans) | antifungal activity (Ceratocystis ulmi) | antifungal activity (Alternaria solani) | antifungal activity (Cryptococous neoformans) | antifungal activity (Saccharomyces cerevisiae)
1 | CCCCCCC(=O)CCCCCC/C=C/C(O)C(O)C(O)C(N)(CO)C(=O)O (stereo not drawn) [Compound IA] | active | active | active | active | very strong antifungal activity | very strong antifungal activity | – | –
2 | CCCCCCC(=O)CCCCCC/C=C/C(O)C(O)C(O)C(C)(N)C(=O)O (stereo not drawn) [Compound IB] | – | – | – | active | – | – | active | active
